Each structure is given as a SMILES string. pIC50: −log10 of the molar value.

This experiment has as its target T1, Recombinant Human ENPP-2/Autotaxin (Homo sapiens, UniProt Q13822).
T1 construct: purchased R&D systems 5255-EN
As to the kind of experiment: LysoPLD activity measurement (autotaxin enzyme inhibition, choline release, TOOS reagent). It is filed as biochemical. As to conditions: LysoPLD inhibitory activity; substrate 14:0 LysoPC; absorbance at 555 nm. The protocol:
Such a measurement method is a method of measuring the amount of choline, which is a reaction product in an autotaxin enzyme reaction, using a TOOS reagent. Depending on the activity of the autotaxin inhibitor, the amount of choline produced as a reaction product varies, which affects the final absorbance.
After 30 min, 14:0 LysoPC of the substrate diluted to a concentration of 300 μM with the enzyme reaction buffer solution was dispensed into each well by 50 μL and allowed to stand at 37° C. for 90 minutes. At this time, negative control wells were dispensed with 1% DMSO, substrate, and autotaxin instead of the compound, and positive control wells were dispensed with 1% DMSO and substrate.
In general, pIC50 refers to the IC50 on a negative log10 scale, so that one unit is a factor of ten. Consider `O=C(O)c1cc(F)cc(Cn2c(=O)n(-c3ccccc3)c3cc(Cl)ccc32)c1` [Example 34, 3-((5-chloro-2-oxo-3-phenyl-2,3-dihydro-1H-benzo[d]imidazol-1-yl)methyl)-5-fluorobenzoic acid], for which the pIC50 is 6.00 to 7.00. The result for `O=C(O)c1cc(Cn2c(=O)n(-c3ccccc3)c3cc(Cl)ccc32)ccc1F` [Example 35, 5-((5-chloro-2-oxo-3-phenyl-2,3-dihydro-1H-benzo[d]imidazol-1-yl)methyl)-2-fluorobenzoic acid] reads 6.00 to 7.00. With `CN(C)C(=O)c1ccc(-n2c(=O)n(Cc3cccc(C(=O)O)c3)c3ccc(Cl)cc32)cc1F` [Example 36, 3-((5-chloro-3-(4-(dimethylcarbamoyl)-3-fluorophenyl)-2-oxo-2,3-dihydro-1H-benzo[d]imidazol-1-yl)methyl)benzoic acid], the pIC50 is 7.00 to 8.00. Under `CN(C)c1ccc(-n2c(=O)n(Cc3cccc(C(=O)O)c3)c3cc(Cl)cc(F)c32)cc1` [Example 37, 3-((6-chloro-3-(4-(dimethylamino)phenyl)-4-fluoro-2-oxo-2,3-dihydro-1H-benzo[d]imidazol-1-yl)methyl)benzoic acid] stands 6.00 to 7.00; under `CN(C)C(=O)c1ccc(-n2c(=O)n(Cc3cccc(C(=O)O)c3F)c3ccc(Cl)cc32)cc1` [Example 38, 3-((5-chloro-3-(4-(dimethylcarbamoyl)phenyl)-2-oxo-2,3-dihydro-1H-benzo[d]imidazol-1-yl)methyl)-2-fluorobenzoic acid], above 8.00; under `CN(C)c1ccc(-n2c(=O)n(Cc3cccc(C(=O)O)c3F)c3ccc(Cl)cc32)cc1` [Example 39, 3-((5-chloro-3-(4-(dimethylamino)phenyl)-2-oxo-2,3-dihydro-1H-benzo[d]imidazol-1-yl)methyl)-2-fluorobenzoic acid], 7.00 to 8.00. On to `CC(C)Oc1ccc(-n2c(=O)n(Cc3cccc(C(=O)O)c3F)c3ccc(Cl)cc32)cc1` [Example 40, 3-((5-chloro-3-(4-isopropoxyphenyl)-2-oxo-2,3-dihydro-1H-benzo[d]imidazol-1-yl)methyl)-2-fluorobenzoic acid], for which the pIC50 is 7.00 to 8.00. Under `CS(=O)(=O)Nc1ccc(-n2c(=O)n(Cc3cccc(C(=O)O)c3F)c3ccc(Cl)cc32)cc1` [Example 41, 3-((5-chloro-3-(4-(methylsulfonamido)phenyl)-2-oxo-2,3-dihydro-1H-benzo[d]imidazol-1-yl)methyl)-2-fluorobenzoic acid] stands 7.00 to 8.00. Under `O=C(O)c1cccc(Cn2c(=O)n(-c3ccc(OCC4CC4)cc3)c3cc(Cl)ccc32)c1` [Example 42, 3-((5-chloro-3-(4-(cyclopropylmethoxy)phenyl)-2-oxo-2,3-dihydro-1H-benzo[d]imidazol-1-yl)methyl)benzoic acid] stands 6.00 to 7.00.

Regarding `O=C(O)c1cccc(Cn2c(=O)n(-c3ccc(C(=O)N4CCCCC4)cc3)c3cc(Cl)ccc32)c1` [Example 43, 3-((5-chloro-2-oxo-3-(4-(piperidine-1-carbonyl)phenyl)-2,3-dihydro-1H-benzo[d]imidazol-1-yl)methyl)benzoic acid], the pIC50 is above 8.00. Under `O=C(O)c1cccc(Cn2c(=O)n(-c3ccc(C(=O)N4CCOCC4)cc3)c3cc(Cl)ccc32)c1` [Example 44, 3-((5-chloro-3-(4-(morpholine-4-carbonyl)phenyl)-2-oxo-2,3-dihydro-1H-benzo[d]imidazol-1-yl)methyl)benzoic acid] stands 7.00 to 8.00. The result for `O=C(O)c1cccc(Cn2c(=O)n(-c3ccc(C(=O)N4CCCC4)cc3)c3cc(Cl)ccc32)c1` [Example 45, 3-((5-chloro-2-oxo-3-(4-(pyrrolidine-1-carbonyl)phenyl)-2,3-dihydro-1H-benzo[d]imidazol-1-yl)methyl)benzoic acid] reads above 8.00; that for `O=C(O)c1cccc(Cn2c(=O)n(-c3ccc(C(=O)O)cc3F)c3cc(Cl)ccc32)c1` [Example 46, 4-(3-(3-carboxybenzyl)-6-chloro-2-oxo-2,3-dihydro-1H-benzo[d]imidazol-1-yl)-3-fluorobenzoic acid], 6.00 to 7.00. Under `O=C(O)c1cccc(Cn2c(=O)n(-c3ccc(N4CCOCC4)cc3)c3cc(Cl)ccc32)c1` [Example 47, 3-((5-chloro-3-(4-morpholinophenyl)-2-oxo-2,3-dihydro-1H-benzo[d]imidazol-1-yl)methyl)benzoic acid] stands 7.00 to 8.00; under `O=C(O)c1cc(Cn2c(=O)n(-c3ccc(N4CCOCC4)cc3)c3c(F)c(Cl)ccc32)ccc1F` [Example 48, 5-((5-chloro-4-fluoro-3-(4-morpholinophenyl)-2-oxo-2,3-dihydro-1H-benzo[d]imidazol-1-yl)methyl)-2-fluorobenzoic acid], 7.00 to 8.00. Regarding `O=C(O)c1cc(F)cc(Cn2c(=O)n(-c3ccc(N4CCOCC4)cc3)c3c(F)c(Cl)ccc32)c1` [Example 49, 3-((5-chloro-4-fluoro-3-(4-morpholinophenyl)-2-oxo-2,3-dihydro-1H-benzo[d]imidazol-1-yl)methyl)-5-fluorobenzoic acid], the pIC50 is 7.00 to 8.00. Regarding `O=C(O)c1ccc(F)c(Cn2c(=O)n(-c3ccc(N4CCOCC4)cc3)c3c(F)c(Cl)ccc32)c1` [Example 50, 3-((5-chloro-4-fluoro-3-(4-morpholinophenyl)-2-oxo-2,3-dihydro-1H-benzo[d]imidazol-1-yl)methyl)-4-fluorobenzoic acid], the pIC50 was 7.00 to 8.00.

As to `O=C(O)c1cccc(Cn2c(=O)n(-c3ccc(N4CCOCC4)cc3)c3c(F)c(Cl)ccc32)c1F` [Example 51, 3-((5-chloro-4-fluoro-3-(4-morpholinophenyl)-2-oxo-2,3-dihydro-1H-benzo[d]imidazol-1-yl)methyl)-2-fluorobenzoic acid], the negative logarithm of the IC50 (pIC50) was above 8.00. The result for `O=C(O)c1cccc(Cn2c(=O)n(-c3ccc(N4CCOCC4)cc3)c3c(F)c(Cl)ccc32)n1` [Example 52, 6-((5-chloro-4-fluoro-3-(4-morpholinophenyl)-2-oxo-2,3-dihydro-1H-benzo[d]imidazol-1-yl)methyl)picolinic acid] reads 7.00 to 8.00.

With `O=C(O)c1cccc(Cn2c(=O)n(-c3ccc(N4CC(O)C4)cc3)c3c(F)c(Cl)ccc32)c1` [Example 53, 3-((5-chloro-4-fluoro-3-(4-(3-hydroxyazetidin-1-yl)phenyl)-2-oxo-2,3-dihydro-1H-benzo[d]imidazol-1-yl)methyl)benzoic acid], the pIC50 was 7.00 to 8.00. `CN(C)C(=O)c1ccc(-n2c(=O)n(Cc3cccc(C(=O)O)c3)c3c(F)cc(Cl)cc32)cc1` [Example 54, 3-((5-chloro-3-(4-(dimethylcarbamoyl)phenyl)-7-fluoro-2-oxo-2,3-dihydro-1H-benzo[d]imidazol-1-yl)methyl)benzoic acid]: the pIC50 is above 8.00. The result for `CSc1ccc(-n2c(=O)n(Cc3cccc(C(=O)O)c3F)c3ccc(Cl)cc32)cc1` [Example 55, 3-((5-chloro-3-(4-(methylthio)phenyl)-2-oxo-2,3-dihydro-1H-benzo[d]imidazol-1-yl)methyl)-2-fluorobenzoic acid] reads 7.00 to 8.00. Regarding `O=C(O)c1cccc(Cn2c(=O)n(-c3ccc(C(=O)N4CCCC4)cc3)c3cc(Cl)ccc32)c1F` [Example 56, 3-((5-chloro-2-oxo-3-(4-(pyrrolidine-1-carbonyl)phenyl)-2,3-dihydro-1H-benzo[d]imidazol-1-yl)methyl)-2-fluorobenzoic acid], the pIC50 is above 8.00.

These data come from US20260265265A1, “NOVEL BENZIMIDAZOLONE DERIVATIVE COMPOUND AS AUTOTAXIN INHIBITOR” (LG CHEM, LTD., priority 2023, published 2026).
